In patent US20240246905A1 (University of Leicester, priority 2021, published 2024):
Read-outs that look alike come from different tables or passages of the source.

What was measured:
[1] = test system: MRSA 252, MSSA 476, S. aureus 15981, P. aeruginosa PA01 and E. coli DH5α; assay: Disc diffusion primary screening, five strains (statements in words); type: cell-based; details: 500 μg/mL
Description: As such, the minimum inhibition concentration (MICs) of biologically active compounds were further assessed using the broth dilution method against the S. aureus strains; MRSA 252 and MSSA 476 (Table 1). The results of both assays enabled key structural elements and functional groups required for the compounds to retain their antibiotic activity to be identified.
The antibiotic activity was determined using a Kirby-Bauer method according to Clinical Standard Laboratory Institute (CSLI) Guidelines (2017). Briefly, 180 μL of a 1 in 200 dilution (in LB or TSB) of overnight cultures of selected Gram negative and Gram positive bacteria were applied to an agar plate containing the solid growth medium, Mueller-Hinton agar (MHA). Sterile discs, inoculated with 50 μL of antibiotic, were first added to the agar plate before the plates were incubated for 24 hours at 37° C. Following incubation, the zone of inhibition (if it existed) was recorded.

[2] = test system: C. neoformans H99; ATCC 208821; assay: Anti-fungal MIC (CO-ADD); type: cell-based
Description: (§1) Fungal strains were cultured for 3 days on Yeast Extract-Peptone Dextrose (YPD) agar at 30° C. A yeast suspension of 1×10^6 to 5×10^6 CFU/mL (as determined by OD530) was prepared from five colonies. […] All plates were covered and incubated at 35° C. for 36 hours without shaking. […] The absorbance was measured using a Biotek Multiflo Synergy HTX plate reader. In both cases, the percentage of growth inhibition was calculated for each well, using the negative control (media only) and positive control (fungi without inhibitors) on the same plate. […] Due to a higher variance in growth and inhibition, a lower threshold was applied to the data for C. neoformans. In addition, the maximal percentage of growth inhibition is reported as DMax, indicating any compounds with marginal activity.

[3] = test system: C. glabrata ATCC 90030; assay: Anti-fungal MIC (CO-ADD); type: cell-based
Description: as §1

[4] = test system: C. tropicalis ATCC 750; assay: Anti-fungal MIC (CO-ADD); type: cell-based
Description: as §1

[5] = test system: C. albicans ATCC 90028; assay: Anti-fungal MIC (CO-ADD); type: cell-based
Description: as §1

[6] = test system: C. tropicalis ATCC 450; assay: Anti-fungal MIC (CO-ADD); type: cell-based
Description: as §1

[7] = test system: C. deuterogattii ATCC 32609; assay: Anti-fungal MIC (CO-ADD); type: cell-based
Description: as §1

[8] = test system: MRSA 252; assay: MIC before and after cysteine addition; type: cell-based, S. aureus; details: up to 24 hours
Text: It is well known that compounds bearing an isocyanide group are usually highly reactive, capable of reacting with electrophiles, nucleophiles and radicals.^(30) As a result, it was important to identify any stability issues which might be encountered by the lead compounds, both in storage and in the presence of glutathione and cysteine. […] Another common feature of the lead compounds is the vinyl fragment. It was hypothesized that the presence of glutathione and cysteine found in eukaryotic cells could potentially interact with the electrophilic alkene group in the compounds, thus shutting down their antibiotic activity. To probe this potentially detrimental in vivo process, compound 39 was subjected to glutathione for up to 24 hours whilst compound 41 was added to cysteine for the same length of time.

[9] = test system: S. aureus SH1000 cells; assay: DiSC3(5) membrane potential assay; type: cell-based; details: 16 μg/mL, 180 minutes
Description: We next looked to further confirm the cell membrane as being the target site of action for our compounds, by undertaking a membrane depolarization assay using the voltage sensitive dye, 3,3′-dipropylthiacarbocyanine iodide (DiSC3(5)).
[…] Cultures of SH1000 were grown to OD600 of 0.2 before being incubated further with 0.1 M KCl and 2 μM DiSC3(5) for 30 minutes at 37° C. […] Subsequently, the cells were centrifuged and 1 mL of supernatant mixed with 1 mL DMSO; the centrifuged pellet was lysed in DMSO for 10 minutes and added to equal volumes of HEPES and glucose buffer. Extracellular and intracellular fluorescence was measured on a LS 45 luminescence spectrometer (PerkinElmer) at an excitation and emission of 622 nm and 670 nm respectively. Consequently, the membrane potential was calculated using the Nernst equation and expressed as a percentage of the initial value.

[10] = test system: late-exponential phase MRSA 252; assay: Time-kill assay; type: cell-based, S. aureus
Description: Investigations into the precise mode of action of these compounds was next studies, with time-kill assays, resistance studies, live-dead stain and morphological analysis of bacteria exposed to the compounds providing an insight into the specific mode of action. Time-kill assays were used to evaluate whether the compounds were bacteriostatic or bactericidal.
The mode of inhibitory action of our novel class of compounds was determined by measuring the decrease in CFU over time. […] The pellets were re-suspended in TSB with the antibiotic added at 2× and 4×MIC and incubated at 37° C. Bacterial suspensions mixed with 1 M saline served as a control. […]

[11] = test system: MRSA 252; assay: Resistance testing by serial passaging; type: cell-based, S. aureus; details: 18 serial passage cycles
Description: Next a serial passage study was undertaken in order to elucidate the speed at which target bacteria might either evolve resistance or select for persister cells within that population following exposure to compound 36.
For resistance development by serial passaging, 5 μL of overnight cultured MRSA 252 cells were added to individual wells in a 96-well plate containing 195 μL of TSB supplemented with a range of antibiotic concentrations and incubated at 37° C. for 18 hours. Ofloxacin served as a control. Wells where bacterial growth was visible after 18 hours were plated on TSA plates and incubated at 37° C. for a further 18 hours. Single colonies obtained from the overnight cultured bacteria were then inoculated into fresh TSB medium, incubated at 37° C. for 18 hours before being used in the next cycle of the resistance testing. This process continued for 18 cycles.

[12] = test system: Galleria mellonella; assay: Systemic toxicity, Galleria mellonella survival; details: n = 10, injection of 500 μg/mL
Description: Galleria mellonella wax worms purchased from www.livefoods.co.uk were inoculated with 10 μL of a series of dilutions of the antibiotics synthesised in-house. The antibiotic concentrations chosen for this study were the following: 1000 μg/mL, 500 μg/mL, 250 μg/mL, 125 μg/mL and 31.25 μg/mL. Each dilution was injected into 10 individual wax worms through their last pro-leg. The injected wax worms were stored at 25° C. for 5 days. The cytotoxicity was determined as the percentage survival rate of Galleria mellonella Wax worms after 5 days inoculation.

[13] = Cryptococcus neoformans, ATCC208821, read-out: MIC
[14] = Nakaseomyces glabratus, ATCC90030, read-out: MIC
[15] = Candida tropicalis, ATCC750, read-out: MIC
[16] = Candida albicans, ATCC90028, read-out: MIC
[17] = Candida tropicalis, ATCC450, read-out: MIC

| Compound | antibiotic activity in disc diffusion assays (in words) [1] | MIC [2, 13] | MIC [3, 14] | MIC [4, 15] | MIC [5, 16] | MIC [6, 17] | MIC ([7]; read-out: MIC) | MIC in the presence of cysteine [8] | reduction in the proton motive force [9] | reduction in bacterial density ([10]; 20 hours exposure, 2×MIC, MRSA 252 in TSB) | bacteriostatic or bactericidal ([10]; late-exponential phase MRSA 252) | change of MIC after serial passage (in words) [11] | % survival after 5 days [12] | MIC [2] | MIC [3] | MIC [4] | MIC [5] | MIC [6] | MIC [7] |
| --- | --- | --- | --- | --- | --- | --- | --- | --- | --- | --- | --- | --- | --- | --- | --- | --- | --- | --- | --- |
| [C-]#[N+]/C=C/c1ccc(NC(C)=O)cc1/C=C/c1ccccc1 [Compound 41, N-(4-((E)-2-Isocyanovinyl)-3-((E)-styryl)phenyl)acetamide] | excellent activity against all three S. aureus strains, as well as P. aeruginosa PAO1 | 2 µg/mL | 32 µg/mL | 32 µg/mL | 2 to 4 µg/mL | 1 to 2 µg/mL | 1 to 2 µg/mL | remained unaffected | 70% | 4 log | bactericidal activity | – | – | – | – | – | – | – | – |
| [C-]#[N+]/C=C/c1ccc(O)cc1/C=C/c1ccccc1 [Compound 36, 4-((E Z)-2-Isocyanovinyl)-3-((E)-styryl)phenol] | retained antibiotic activity | 4 to 8 µg/mL | 32 µg/mL | 32 µg/mL | 16 µg/mL | 2 µg/mL | 2 µg/mL | – | – | – | – | no increase in the MIC | – | – | – | – | – | – | – |
| [C-]#[N+]C=Cc1ccc(O)c(Br)c1 [Compound 14] | – | > 32 µg/mL | > 32 µg/mL | > 32 µg/mL | 32 µg/mL | > 32 µg/mL | 32 µg/mL | – | – | – | – | – | – | – | – | – | – | – | – |
| [C-]#[N+]C=Cc1cc(Br)ccc1O [Compound 13] | – | 4 to 8 µg/mL | > 32 µg/mL | 16 µg/mL | 4 to 8 µg/mL | 4 µg/mL | 4 µg/mL | – | – | – | – | – | – | – | – | – | – | – | – |
| (2-Isocyanovinyl)-4-acetaamido benzene [Compound 22] | – | – | – | – | – | – | – | – | – | – | – | – | 70% | >32 µg/mL | >32 µg/mL | >32 µg/mL | 16 µg/mL | >32 µg/mL | >32 µg/mL |
